Measurements from ChEMBL document CHEMBL1201862, “PubChem BioAssay data set” (2004).
Active and inactive are the calls of the source.

How the values were obtained:
[1] = system: Streptococcus sp. 'group A'; experiment: growth inhibition of control SK(-) GAS strain, dose response, counter-screen for streptokinase expression inhibitor project, luminescence, kanamycin, BacTiterGlo, confirmation (AID 1900); type: functional, organism-based
[2] = system: Streptococcus; experiment: Group A Streptococcus viability loss, dose response, counter-screen for streptokinase expression inhibitor project, luminescence, BacTiterGlo (AID 1915); type: functional, organism-based;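 also: potency for reduction of bacterial viability or growth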
[3] = system: INS1; experiment: beta cell apoptosis inhibitors, cytokine rescue, dose response, luminescence, retest (AID 449756); type: functional, cell-based; settings: Rattus norvegicus;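 also: cell death triggered by IL-1 beta plus TNF-alpha plus IFN-gamma mixture; protective hits raise ATP signal compared with cytokine alone wells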
[4] = Luminescence Cell-Based Dose Retest to Confirm Inhibitors of Cancer Stem Cells. [Related pubchem assays (depositor defined):AID2717, AID2721]; type: functional; settings: Homo sapiens
[5] = molecular target: FAD-linked sulfhydryl oxidase ALR (Homo sapiens, UniProt P55789); experiment: inhibitors of human ALR sulfhydryl oxidase, dose response, biochemical, H2O2 detection, luminescence, cherry-pick (AID 493248)
[6] = molecular target: T1, Streptokinase A (Streptococcus pyogenes serotype M1, UniProt P10520); experiment: S. pyogenes streptokinase expression inhibitors, potency, dose response, plasminogen activation absorbance, OD405 (AID 1914); type: functional, Streptococcus pyogenes M1 GAS;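 also: secreted streptokinase activity via plasminogen activation per viability signal from cell pellet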
T1 sequence (P10520 whole entry): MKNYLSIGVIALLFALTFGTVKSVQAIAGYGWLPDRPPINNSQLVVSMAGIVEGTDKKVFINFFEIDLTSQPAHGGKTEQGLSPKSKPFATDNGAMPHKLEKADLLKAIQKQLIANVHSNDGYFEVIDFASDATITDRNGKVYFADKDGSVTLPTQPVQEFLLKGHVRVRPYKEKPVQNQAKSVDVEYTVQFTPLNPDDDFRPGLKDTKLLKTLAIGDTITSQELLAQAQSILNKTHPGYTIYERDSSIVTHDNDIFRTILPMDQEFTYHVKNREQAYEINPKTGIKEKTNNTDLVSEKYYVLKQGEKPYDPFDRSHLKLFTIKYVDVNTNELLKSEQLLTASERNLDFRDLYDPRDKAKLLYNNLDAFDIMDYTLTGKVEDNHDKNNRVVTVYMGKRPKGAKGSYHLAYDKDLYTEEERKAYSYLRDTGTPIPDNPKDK

[7] = molecular target: T2, Corticotropin-releasing factor receptor 2/Corticotropin-releasing factor-binding protein (Homo sapiens, UniProt P24387+Q13324); experiment: Dose Response confirmation of uHTS hits for small molecule antagonists of the CRF-binding protein and CRF-R2 receptor complex.; type: functional; settings: read-out: IC50_Mean
T2 sequence (Q13324 whole entry): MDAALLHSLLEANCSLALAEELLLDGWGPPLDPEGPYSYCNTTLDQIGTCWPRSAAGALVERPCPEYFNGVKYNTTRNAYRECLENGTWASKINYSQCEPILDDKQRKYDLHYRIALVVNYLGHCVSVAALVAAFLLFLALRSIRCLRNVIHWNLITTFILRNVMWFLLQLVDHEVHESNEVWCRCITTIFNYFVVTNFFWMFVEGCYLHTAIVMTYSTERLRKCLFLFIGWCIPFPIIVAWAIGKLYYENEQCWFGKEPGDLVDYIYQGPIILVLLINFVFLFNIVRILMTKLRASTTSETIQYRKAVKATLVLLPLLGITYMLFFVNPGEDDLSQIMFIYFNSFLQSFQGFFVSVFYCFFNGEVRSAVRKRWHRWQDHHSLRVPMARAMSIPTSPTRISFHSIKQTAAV
T2 sequence (P24387 whole entry): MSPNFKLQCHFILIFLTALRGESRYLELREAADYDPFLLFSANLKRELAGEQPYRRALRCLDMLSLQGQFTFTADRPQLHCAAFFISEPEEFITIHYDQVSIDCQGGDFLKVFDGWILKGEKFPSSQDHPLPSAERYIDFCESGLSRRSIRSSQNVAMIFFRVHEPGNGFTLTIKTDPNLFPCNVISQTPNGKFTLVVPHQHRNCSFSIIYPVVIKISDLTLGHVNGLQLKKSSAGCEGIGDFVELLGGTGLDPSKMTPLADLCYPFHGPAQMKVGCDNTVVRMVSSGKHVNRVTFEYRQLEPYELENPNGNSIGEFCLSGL

[8] = molecular target: T2, Corticotropin-releasing factor receptor 2/Corticotropin-releasing factor-binding protein; experiment: activators of CRF receptor 2 with binding protein – uHTS hits, confirmation (AID 602473); type: functional; settings: read-out: EC50_Mean
[9] = P. falciparum Dd2 growth inhibitors, dose response, SYBR Green, cherry-picked samples (AID 1159567); type: functional, cell-based
[10] = inhibitors of intracellular T. cruzi replication, confirmation, NIH3T3 host cells, beta-gal luminescence (AID 2044); type: functional, cell-based;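 also: intracellular parasites grown in NIH/3T3 mouse fibroblasts as host cells; luminescent beta-galactosidase reporter signal from transgenic T. cruzi replicating inside host cells; inhibitors lower the luminescence signal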
[11] = cytotoxicity toward NIH3T3 fibroblasts, dose response, counter-screen, cell-based, ATP luminescence, mouse fibroblasts (AID 2010); type: functional;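 also: cells exposed to compound for about 90 hours before reading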
[12] = molecular target: T3, Heat shock factor protein 1 (Mus musculus, UniProt P38532); experiment: inhibition of MG132-induced HSE-luciferase signal, confirmation, cell-based, NIH3T3, luminescence, dose retest (AID 2382); type: functional;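 also: NIH3T3 fibroblasts with HSF1-driven luciferase reporter stressed by proteasome inhibitor MG132; luminescence from HSF1-driven luciferase expression after 8 hours of MG132 stress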
T3 sequence (P38532 whole entry): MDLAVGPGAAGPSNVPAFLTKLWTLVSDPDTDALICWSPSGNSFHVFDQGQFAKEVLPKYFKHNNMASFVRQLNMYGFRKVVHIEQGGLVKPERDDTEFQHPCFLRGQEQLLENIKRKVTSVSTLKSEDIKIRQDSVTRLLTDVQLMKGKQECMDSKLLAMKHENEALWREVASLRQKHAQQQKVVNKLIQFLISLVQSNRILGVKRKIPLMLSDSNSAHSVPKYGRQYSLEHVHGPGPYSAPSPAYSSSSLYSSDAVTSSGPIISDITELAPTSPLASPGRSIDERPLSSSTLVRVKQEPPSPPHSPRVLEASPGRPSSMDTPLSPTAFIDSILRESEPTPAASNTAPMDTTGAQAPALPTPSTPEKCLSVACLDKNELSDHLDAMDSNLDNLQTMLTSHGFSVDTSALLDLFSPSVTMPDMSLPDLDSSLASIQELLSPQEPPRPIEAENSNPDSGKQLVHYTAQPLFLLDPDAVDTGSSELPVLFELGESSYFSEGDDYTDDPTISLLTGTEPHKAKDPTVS

[13] = molecular target: T4, Rac GTPase-activating protein 1 (Homo sapiens, UniProt Q9H0H5); experiment: MgcRacGAP GTPase-activating activity inhibitors, confirmation, biochemical, ADP Hunter fluorescence, primary and confirmatory (AID 624330); type: functional
T4 sequence (Q9H0H5 whole entry): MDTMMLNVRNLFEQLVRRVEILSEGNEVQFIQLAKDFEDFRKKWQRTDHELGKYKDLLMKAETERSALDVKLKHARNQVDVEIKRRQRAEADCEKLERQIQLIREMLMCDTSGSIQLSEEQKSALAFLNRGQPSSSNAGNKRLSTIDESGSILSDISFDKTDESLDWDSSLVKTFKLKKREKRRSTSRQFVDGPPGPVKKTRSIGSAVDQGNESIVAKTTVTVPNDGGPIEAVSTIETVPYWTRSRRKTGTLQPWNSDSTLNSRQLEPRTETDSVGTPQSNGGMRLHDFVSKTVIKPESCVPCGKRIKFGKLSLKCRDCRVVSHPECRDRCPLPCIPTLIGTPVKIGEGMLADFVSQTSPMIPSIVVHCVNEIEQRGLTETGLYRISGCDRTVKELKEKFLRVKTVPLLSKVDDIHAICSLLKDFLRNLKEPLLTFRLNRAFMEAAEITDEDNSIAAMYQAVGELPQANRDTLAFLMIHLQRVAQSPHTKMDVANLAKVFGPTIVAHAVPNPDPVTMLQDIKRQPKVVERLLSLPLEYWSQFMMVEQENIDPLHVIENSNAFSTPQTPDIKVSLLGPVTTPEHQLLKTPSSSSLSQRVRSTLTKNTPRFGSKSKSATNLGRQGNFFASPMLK

[14] = Shn3 3'UTR reporter inhibitors, dose response, cell-based, Clone20 osteoblasts, firefly luciferase, cherry-picked (AID 624132); type: functional;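 also: firefly luciferase luminescence from reporter carrying the Shn3 3'UTR in osteoblasts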

FAD-linked sulfhydryl oxidase ALR, sequence (P55789 whole entry): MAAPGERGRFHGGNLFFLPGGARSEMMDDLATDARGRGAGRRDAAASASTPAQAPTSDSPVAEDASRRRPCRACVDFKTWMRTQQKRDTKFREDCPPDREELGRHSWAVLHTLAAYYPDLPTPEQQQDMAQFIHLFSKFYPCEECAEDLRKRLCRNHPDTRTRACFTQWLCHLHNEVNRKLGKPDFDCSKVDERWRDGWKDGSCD

## O=C(NNC(=O)c1ccccc1OCc1ccc(F)cc1)c1ccccc1O
[1]
  EC50: 3.68 µM (active)
[2]
  EC50: 3.62 µM (active)
[3]
  AC50: 2.67 µM (active)

## FC(F)(F)c1cccc(Nc2ncnc3ccccc23)c1
[4]
  AC50: 1.43 µM (active)

## COC(=O)Nc1ccc(S(=O)(=O)N2CCC(C(=O)N(C)C3CCCCC3)CC2)cc1
[5]
  AC50: 1.92 µM (active)

## CN1C(=O)NC(c2ccccc2)(C(F)(F)F)S/C1=C(/C#N)c1nnc(N2CCOCC2)n1-c1ccccc1 (configuration not stated)
[1]
  EC50: > 150 µM (not active)
[6]
  EC50: > 150 µM (not active)
[2]
  EC50: > 150 µM (not active)
[7]
  IC50: > 47.1 µM (inactive)
[8]
  EC50: > 53 µM (inactive)

## COc1ccc(NC(=O)N(C)C[C@H]2Oc3c(NS(=O)(=O)c4ccc(F)cc4)cccc3C(=O)N([C@H](C)CO)C[C@@H]2C)cc1
[3]
  AC50: > 260 µM (inactive)

## C[C@H]1CN([C@@H](C)CO)C(=O)c2c(c3ccccc3n2C)-c2ccccc2CO[C@@H]1CN(C)C(=O)Nc1cccc(F)c1
[9]
  AC50: 5.29 µM (active)

## Cc1ccc([N+](=O)[O-])cc1N(CC(=O)Nc1ccc(S(=O)(=O)Nc2cccc(C(F)(F)F)c2)cc1)S(C)(=O)=O
[10]
  EC50: 1.86 µM (active)
[11]
  EC50: > 60 µM (not active)
[4]
  AC50: 3.7 µM (active)
[3]
  AC50: 2.56 µM (active)

## Cc1ccsc1C(=O)NNC(=O)CCN1CCN(c2ccccc2)CC1
[5]
  AC50: 4.88 µM (active)

## O=C(Cc1ccc(-n2cccc2)cc1)N1CCN(c2ccccc2F)CC1
[7]
  IC50: > 47.1 µM (inactive)
[8]
  EC50: > 53 µM (inactive)

## Cc1ccc(NC2CCCN(C(=O)c3cc4ncccn4n3)C2)cc1C (configuration not stated)
[5]
  AC50: 4.14 µM (active)

## CC(C)(C)c1ccc(/C=C2\SC(=O)N(CCNC(=O)c3cccc(S(=O)(=O)N4CCOCC4)c3)C2=O)cc1
[12]
  EC50: 2.43 µM (active)

## CSCc1ccc(C(=O)NC(C)c2cnn(-c3ccccn3)c2C)o1 (configuration not stated)
[5]
  AC50: 9.51 µM (active)

## CCOC(=O)C1CCCN(C2CC(=O)N(c3ccccc3)C2=O)C1 (configuration not stated)
[7]
  IC50: > 47.1 µM (inactive)
[8]
  EC50: > 53 µM (inactive)

## COc1ccc(C(=O)Nc2ccc3c(c2)nc(CN2CCCC2)n3C)cc1
[12]
  EC50: > 195 µM (not active)

## COc1ccc(NC2CCCN(C(=O)CCc3ccccc3F)C2)cc1 (configuration not stated)
[5]
  AC50: 13.4 µM (active)
[13]
  IC50: 65.4 µM (active)

## Cc1ccnc(NC(=O)CS(=O)(=O)c2ccccc2)c1
[12]
  EC50: > 195 µM (not active)

## COc1ccc(S(=O)(=O)N(CC(C)C)C2CCS(=O)(=O)C2)cc1OC (configuration not stated)
[7]
  IC50: > 47.1 µM (inactive)
[8]
  EC50: > 53 µM (inactive)

## CCc1sc(C(=O)NCCc2ccc(S(N)(=O)=O)cc2)cc1Br
[7]
  IC50: > 47.1 µM (inactive)
[8]
  EC50: > 53 µM (inactive)

## O=C1Nc2ccccc2N(O)N1c1cc(-c2cccc(Cl)c2)no1
[5]
  AC50: 1.92 µM (active)
[7]
  IC50: > 47.1 µM (inactive)
[8]
  EC50: 6.32 µM (active)

## COC(=O)c1ccc(NC(=O)NC2CCCCC2)cc1
[12]
  EC50: > 195 µM (not active)

## O=C(O)C1(Nc2ccccc2Cl)CCCC1
[14]
  AC50: 29.5 µM (active)

## NS(=O)(=O)c1ccc(CNC(=O)c2cnccn2)cc1
[12]
  EC50: > 195 µM (not active)

## Cn1c(-c2ccccc2)cnc1NCc1ccc(-c2ccccc2)cc1
[4]
  AC50: 1.34 µM (active)
[13]
  IC50: 78.1 µM (active)

## CN(Cc1ccccc1)S(=O)(=O)c1nnc(NC(=O)c2ccc(F)cc2)s1
[7]
  IC50: < 0.368 µM (active)
[8]
  EC50: > 53 µM (inactive)

## COc1ccccc1OCCCCOc1ccccc1C(C)=O
[3]
  AC50: 12 µM (active)

## CC1CCC(NC(=O)Nc2cccs2)CC1 (configuration not stated)
[5]
  AC50: 1.18 µM (active)

## COc1ccc(C2NC(=O)C(C#N)=C(S)N2c2ccccc2)cc1OC (configuration not stated)
[5]
  AC50: < 0.014 µM (active)

## COc1cc(/C=N/NC(=O)c2ccc(O)nn2)ccc1O
[5]
  AC50: 1.22 µM (active)
[13]
  IC50: 23.9 µM (active)

## CC(C)C(=O)Nc1ccc(C(=O)N2CCN(C(=O)c3ccco3)CC2)cc1
[12]
  EC50: > 195 µM (not active)

## Fc1ccc(N2CCN(Cc3ccccn3)CC2)cc1
[5]
  AC50: 8.77 µM (active)

## CN(C(=O)c1ccccc1C(=O)OCC(=O)Nc1ccc(S(N)(=O)=O)cc1)c1ccccc1
[12]
  EC50: > 195 µM (not active)

## C/[N+]([O-])=C\C1C(=O)CC(C)(C)CC1=O
[12]
  EC50: > 195 µM (not active)
[7]
  IC50: > 47.1 µM (inactive)
[8]
  EC50: > 53 µM (inactive)

## C=C1CCN([C@@H](CC(C)C)C(=O)Nc2nc3ccc(Cl)cc3s2)S(=O)(=O)c2ccccc21
[4]
  AC50: 5.19 µM (active)

## COc1ccc(-c2nc3ccc(C)cn3c2NCc2ccccc2)cc1SC1CCCCC1
[10]
  EC50: 1.2 µM (active)
[11]
  EC50: > 60 µM (not active)
[3]
  AC50: 2.61 µM (active)
